Measured values as given in ChEMBL document CHEMBL1201862, “PubChem BioAssay data set” (2004).
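Five concentrations, 48 hours, 96-well plates. GI50 is the concentration that inhibits growth by half.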 Calls of active or inactive are those of the source. Rule as the data show it: active = GI50 up to about 1.1 µM and inactive = higher.

How the values were obtained:
Assay in all cases: NCI tumour cell line growth inhibition, 48 h
OVCAR-3 = system: OVCAR-3
NCI-H460 = system: NCI-H460
U-251 = system: U-251
OVCAR-8 = system: OVCAR-8
HCT-116 = system: HCT-116
SN12C = system: SN12C
A549 = system: A549
HL-60 = system: HL-60
MDA-MB-435 = system: MDA-MB-435
SNB-75 = system: SNB-75
OVCAR-4 = system: OVCAR-4
IGROV-1 = system: IGROV-1
SF-295 = system: SF-295
K562 = system: K562
SK-OV-3 = system: SK-OV-3
OVCAR-5 = system: OVCAR-5
LOX IMVI = system: LOX IMVI
M14 = system: M14
HOP-92 = system: HOP-92
A498 = system: A498

SMILES | GI50 (OVCAR-3) | GI50 (NCI-H460) | GI50 (U-251) | GI50 (OVCAR-8) | GI50 (HCT-116) | GI50 (SN12C) | GI50 (A549) | GI50 (HL-60) | GI50 (MDA-MB-435) | GI50 (SNB-75) | GI50 (OVCAR-4) | GI50 (IGROV-1) | GI50 (SF-295) | GI50 (K562) | GI50 (SK-OV-3) | GI50 (OVCAR-5) | GI50 (LOX IMVI) | GI50 (M14) | GI50 (HOP-92) | GI50 (A498)
COc1ccc(C2CC(=O)Oc3ccccc3O2)cc1 (centres undefined) | > 100 µM (inactive) | > 100 µM (inactive) | > 100 µM (inactive) | > 100 µM (inactive) | > 100 µM (inactive) | > 100 µM (inactive) | > 100 µM (inactive) | 42.8 µM (inactive) | 70.5 µM (inactive) | > 100 µM (inactive) | > 100 µM (inactive) | > 100 µM (inactive) | > 100 µM (inactive) | > 100 µM (inactive) | > 100 µM (inactive) | – | – | – | – | –
C=CC1(c2ccc(-c3ccccc3)cc2)OCCO1 | 83.4 µM (inactive) | > 100 µM (inactive) | 54.8 µM (inactive) | > 100 µM (inactive) | 47.5 µM (inactive) | 76.2 µM (inactive) | 73.8 µM (inactive) | – | 61.2 µM (inactive) | 39.1 µM (inactive) | 79.4 µM (inactive) | > 100 µM (inactive) | > 100 µM (inactive) | 22.9 µM (inactive) | > 100 µM (inactive) | 64.4 µM (inactive) | 58.9 µM (inactive) | 59.7 µM (inactive) | 34.8 µM (inactive) | –
O=S1(=O)OCCCOS(=O)(=O)C1(Br)Br | > 100 µM (inactive) | – | > 100 µM (inactive) | > 100 µM (inactive) | > 100 µM (inactive) | > 100 µM (inactive) | > 100 µM (inactive) | > 100 µM (inactive) | > 100 µM (inactive) | > 100 µM (inactive) | > 100 µM (inactive) | – | > 100 µM (inactive) | – | > 100 µM (inactive) | > 100 µM (inactive) | > 100 µM (inactive) | > 100 µM (inactive) | – | –
CCOC(OC1=C(C#N)CCCC1)C(C)[Se]c1ccccc1 (centres undefined) | 31.6 µM (inactive) | 54.1 µM (inactive) | 13.4 µM (inactive) | 24.3 µM (inactive) | 30.1 µM (inactive) | 25.2 µM (inactive) | 84.3 µM (inactive) | 17.3 µM (inactive) | – | 36.9 µM (inactive) | 21.7 µM (inactive) | 29.2 µM (inactive) | 33.3 µM (inactive) | 62.1 µM (inactive) | > 100 µM (inactive) | > 100 µM (inactive) | 16 µM (inactive) | 28.9 µM (inactive) | 31.6 µM (inactive) | > 100 µM (inactive)
Cc1ccc(S(=O)(=O)OCC23CCC(CC2)C2CC23)cc1 (centres undefined) | 31.9 µM (inactive) | 42.4 µM (inactive) | 50.9 µM (inactive) | 59.3 µM (inactive) | 53.8 µM (inactive) | 45.4 µM (inactive) | 57.4 µM (inactive) | 17.4 µM (inactive) | – | 3.62 µM (inactive) | 46 µM (inactive) | > 100 µM (inactive) | 35.1 µM (inactive) | 39.6 µM (inactive) | > 100 µM (inactive) | > 100 µM (inactive) | 42.7 µM (inactive) | 92 µM (inactive) | 25.8 µM (inactive) | 43.3 µM (inactive)
COc1ccc(-c2cc(=O)c3c(O)c(O)c(OC)cc3o2)cc1O | > 100 µM (inactive) | 57.9 µM (inactive) | > 100 µM (inactive) | > 100 µM (inactive) | > 100 µM (inactive) | > 100 µM (inactive) | > 100 µM (inactive) | > 100 µM (inactive) | – | 31.5 µM (inactive) | > 100 µM (inactive) | > 100 µM (inactive) | > 100 µM (inactive) | > 100 µM (inactive) | > 100 µM (inactive) | > 100 µM (inactive) | > 100 µM (inactive) | > 100 µM (inactive) | > 100 µM (inactive) | > 100 µM (inactive)
O=[N+]([O-])c1ccc2nc(/C(=N/Nc3ccccc3)C(O)c3ccc(Cl)cc3Cl)c(O)nc2c1 (centres undefined) | > 100 µM (inactive) | > 100 µM (inactive) | > 100 µM (inactive) | > 100 µM (inactive) | > 100 µM (inactive) | > 100 µM (inactive) | > 100 µM (inactive) | 21 µM (inactive) | – | > 100 µM (inactive) | > 100 µM (inactive) | > 100 µM (inactive) | > 100 µM (inactive) | 30 µM (inactive) | > 100 µM (inactive) | > 100 µM (inactive) | > 100 µM (inactive) | > 100 µM (inactive) | > 100 µM (inactive) | > 100 µM (inactive)
C=CCCC1(CCP(=O)(c2ccccc2)c2ccccc2)OCCO1 | > 100 µM (inactive) | > 100 µM (inactive) | > 100 µM (inactive) | > 100 µM (inactive) | > 100 µM (inactive) | > 100 µM (inactive) | > 100 µM (inactive) | > 100 µM (inactive) | > 100 µM (inactive) | > 100 µM (inactive) | – | > 100 µM (inactive) | > 100 µM (inactive) | > 100 µM (inactive) | – | > 100 µM (inactive) | > 100 µM (inactive) | > 100 µM (inactive) | – | –
CC[C@@H]1/C=C/C=C/C[C@H](C)[C@@H](O)[C@](C)(O)C(=O)[C@H](C)[C@@H](O)[C@H](C)C(=O)[C@H](C)[C@@H](O)[C@H](C)/C=C/C(=O)O[C@H]2[C@@H](C)[C@@H](CC1)O[C@@]1(CC[C@@H](C)[C@@H](CC(C)O)O1)[C@@H]2C (some centres undefined) | – | 0.499 µM (active) | < 0.01 µM (active) | < 0.01 µM (active) | 1.1 µM (active) | 1.72 µM (inactive) | < 0.01 µM (active) | < 0.01 µM (active) | 1.52 µM (inactive) | – | – | 1.98 µM (inactive) | < 0.01 µM (active) | < 0.01 µM (active) | 3.13 µM (inactive) | 1.68 µM (inactive) | 1.68 µM (inactive) | 1.24 µM (inactive) | 1.59 µM (inactive) | –
O=C(O)C1=C(C(=O)Nc2ccc(NC(=O)C3=C(C(=O)O)C4C=CC3C4)cc2)C2C=CC1C2 | > 100 µM (inactive) | > 100 µM (inactive) | > 100 µM (inactive) | > 100 µM (inactive) | > 100 µM (inactive) | > 100 µM (inactive) | > 100 µM (inactive) | > 100 µM (inactive) | – | > 100 µM (inactive) | > 100 µM (inactive) | > 100 µM (inactive) | > 100 µM (inactive) | 54.5 µM (inactive) | > 100 µM (inactive) | > 100 µM (inactive) | > 100 µM (inactive) | > 100 µM (inactive) | > 100 µM (inactive) | > 100 µM (inactive)
CC(CNC(=O)c1ccccc1)(CNC(=O)c1ccccc1)[N+](=O)[O-] | – | > 100 µM (inactive) | > 100 µM (inactive) | > 100 µM (inactive) | > 100 µM (inactive) | > 100 µM (inactive) | > 100 µM (inactive) | > 100 µM (inactive) | > 100 µM (inactive) | 51.3 µM (inactive) | – | > 100 µM (inactive) | > 100 µM (inactive) | > 100 µM (inactive) | > 100 µM (inactive) | > 100 µM (inactive) | – | > 100 µM (inactive) | > 100 µM (inactive) | –
CN1N=C(c2ccccc2)c2cc(Cl)ccc2N=C1N/N=C/c1ccc(N(C)C)cc1 | > 100 µM (inactive) | > 100 µM (inactive) | > 100 µM (inactive) | > 100 µM (inactive) | > 100 µM (inactive) | > 100 µM (inactive) | > 100 µM (inactive) | 39.6 µM (inactive) | > 100 µM (inactive) | > 100 µM (inactive) | > 100 µM (inactive) | > 100 µM (inactive) | > 100 µM (inactive) | 64.3 µM (inactive) | > 100 µM (inactive) | – | – | > 100 µM (inactive) | – | –
COc1cc2c(c(OC)c1OC)C(=O)NCCC2 | > 100 µM (inactive) | > 100 µM (inactive) | > 100 µM (inactive) | > 100 µM (inactive) | > 100 µM (inactive) | > 100 µM (inactive) | > 100 µM (inactive) | > 63.1 µM (inactive) | – | 69.7 µM (inactive) | > 100 µM (inactive) | > 100 µM (inactive) | > 100 µM (inactive) | > 100 µM (inactive) | > 100 µM (inactive) | > 100 µM (inactive) | > 100 µM (inactive) | > 100 µM (inactive) | > 100 µM (inactive) | > 100 µM (inactive)
Cc1ccc(NC(=O)CC2C(=O)Nc3ccccc3[S+]2[O-])c(C)c1 (centres undefined) | 9.51 µM (inactive) | 13 µM (inactive) | 10.8 µM (inactive) | 16.9 µM (inactive) | 8.69 µM (inactive) | 30.5 µM (inactive) | 16.1 µM (inactive) | 2.86 µM (inactive) | – | 11.7 µM (inactive) | 17.3 µM (inactive) | 12.8 µM (inactive) | 12.8 µM (inactive) | 4.03 µM (inactive) | 17.6 µM (inactive) | 53.7 µM (inactive) | 16.4 µM (inactive) | 6.78 µM (inactive) | 13.9 µM (inactive) | 18.9 µM (inactive)
CN(C)CCC(/C=C/c1ccccc1)=N\Nc1ccc(Cl)cc1 | 8.69 µM (inactive) | 2.1 µM (inactive) | 1.84 µM (inactive) | 2.98 µM (inactive) | 3.51 µM (inactive) | 2.29 µM (inactive) | 2.52 µM (inactive) | 2.18 µM (inactive) | – | 4.31 µM (inactive) | 5.21 µM (inactive) | 2.64 µM (inactive) | 3.99 µM (inactive) | 2.21 µM (inactive) | 3.99 µM (inactive) | 1.08 µM (active) | 1.59 µM (inactive) | 3.18 µM (inactive) | 2.18 µM (inactive) | 7.66 µM (inactive)
